Source: US6342219B1 (Board of Regents, The University of Texas System, priority 1999, dated 2002)

Tests used:
[1] = tested on: human tumor xenografts (NCI-H358, NCI-H460, HT29, L540); experiment: Immunohistochemistry, endothelial cell staining, human tumor xenografts; format: binding, human tumors grown in SCID mice; design: key: −, negative; +/−, very weak; 1+, weak; 2+, moderate; 3+, strong; 4+, very strong; conditions: acetone fixed frozen sections
Method: (§1) Guinea pig line 10 hepatocellular carcinoma tumor cells (obtained from Dr. Ronald Neuman, NIH, Bethesda, Md.) were grown in strain 2 guinea pigs (NCI, Bethesda, Md.). The human tumors NCI-H358 non-small cell lung carcinoma (NSCLC), NCI-H460 NSCLC (both obtained from Dr. Adi Gazdar, UT Southwestern, Dallas, Tex.), HT29 colon adenocarcinoma (American Type Culture Collection), and L540CY Hodgkin's lymphoma (obtained from Professor V. Diehl, Cologne, Germany) were grown as xenografts in CB17 SCID mice (Charles River, Wilmington, Mass.).
(§2) Tumors were snap frozen in liquid nitrogen and stored at −70° C. Frozen samples of tumor specimens from patients were obtained from the National Cancer Institute Cooperative Human Tissue Network (Southern Division, Birmingham, Ala.). Immunohistochemistry was performed as described by Burrows et al. (1995).

[2] = tested on: NCI-H358 NSCLC and HT29 colon adenocarcinoma xenografts and normal organs; experiment: In vivo localization to human tumor xenografts in mice; design: species or system mouse; key to Immunohistochemical Reactivity, Heart / Immunohistochemical Reactivity, Lung / Immunohistochemical Reactivity, Liver / Immunohistochemical Reactivity, Kidney / Immunohistochemical Reactivity, Intestine / Immunohistochemical Reactivity, Spleen / Immunohistochemical Reactivity, Tumor: −, negative; +/−, very weak; 1+, weak; 2+, moderate; 3+, strong; 4+, very strong
Method: Tumors were grown subcutaneously in immunocompromised mice (NCI-H358 NSCLC in nu/nu mice and HT29 colon adenocarcinoma in SCID mice) until the tumor volume was approximately 1 cm^3. 100μg of unlabeled antibody for studies using SCID mice, or 100 μg of biotinylated antibody for studies using nude mice, was injected intravenously via a tail vein. Twenty four hours later, the mice were anesthetized, perfused with PBS, and tumor and organs including heart, lungs, liver, kidneys, intestines and spleen were collected and snap frozen in liquid nitrogen.
The tumor and organs from each mouse were sectioned on a cryostat and stained for antibody immunohistochemically as above, with the exception that sections from the nude mice were developed using peroxidase labeled streptavidin-biotin complex (Dako, Carpinteria, Calif.) and the sections from the SCID mice were developed using two peroxidase-conjugated secondary antibodies, a goat anti-mouse IgG+IgM followed by a rabbit anti-goat Ig.
Twenty-four hours later, the mice were sacrificed, exsanguinated and the tumors and tissues were removed.

[3] = tested on: guinea pig VEGF in line 10 guinea pig tumor sections; experiment: Immunohistochemistry, endothelial cell staining, guinea pig Line 10 tumor; format: binding; design: key: −, negative; +/−, very weak; 1+, weak; 2+, moderate; 3+, strong; 4+, very strong; conditions: acetone fixed frozen sections
Method: as §1, §2

VEGFR2 (sFlk-1) = experiment: ELISA of VEGF binding to VEGFR2-coated wells; design: species or system mouse
Method: (§3) FIG. 2. […] The plate was then incubated with rabbit anti-VEGF (A-20, Santa Cruz Biotechnology, Inc.) at 1 μg/ml and developed using a peroxidase conjugated goat anti-rabbit antibody. Assays were performed in triplicate. Mean percent binding in the absence of antibody is shown, together with the standard deviation.
(§4) The assay was also performed by coating wells of a microtiter plate with either control or test IgG.

VEGFR1 (Flt-1/Fc) = experiment: ELISA of VEGF binding to VEGFR1-coated wells
Method: as §3, §4

NCI-H358 NSCLC = experiment: In vivo tumor growth inhibition, newly implanted NCI-H358; design: species or system nu/nu mice
Method: FIG. 3A and FIG. 3B. […] FIG. 3A: 1×10^7 NCI-H358 NSCLC cells were injected subcutaneously into nu/nu mice on day 0. FIG. 3B: 5×10^6 A673 rhabdomyosarcoma cells were injected subcutaneously into nu/nu mice on day 0. Mice were injected i.p. with the indicated IgG on day 1 and 2 times/week thereafter. […] Tumors were measured 2-3 times per week. Mean and standard error is shown for the duration of the study in FIG. 3A, while data for the last day of the study (day 26) is shown in FIG. 3B.
Nu/nu mice were injected subcutaneously with either 1×10^7 NCI-H358 NSCLC cells or 5×10^6 A673 rhabdomyosarcoma cells on day 0. […] The tumors were then measured twice per wk for a period of approximately six wk for the NCI-H358 bearing mice and four wk for the A673 bearing mice. Tumor volume was calculated according to the formula: volume=L×W×H, where L=length, W=width, H=height.

[4] = tested on: VEGF alone or VEGF associated with sFlk-1 (VEGF:Flk-1); experiment: Indirect and capture ELISA: reactivity with VEGF alone or VEGF:Flk-1; format: binding, human VEGF; mouse Flk-1
Method: The Flk-1/SEAP protein was produced and purified as described by Tessler et al. (1994). Basically, the extracellular domain of Flk-1 (sFlk-1) was produced in Spodoptera frugiperda (Sf9) cells and purified by immunoaffinity techniques utilizing a monoclonal anti-Flk-1 antibody (1A8). sFlk-1 was then biotinylated and bound on avidin-coated plates.
The reactivity was determined as described above for the initial screening.
A capture ELISA was also developed. In the capture ELISA, microtiter plates were coated overnight at 4° C. with 100 ng of the indicated antibody. […] Streptavidin conjugated to peroxidase (Kirkegaard & Perry Laboratories, Inc.), diluted 1:2000, was used as a second layer and developed.

[5] = tested on: mouse VEGF in mouse 3LL Lewis Lung carcinoma tumor sections; experiment: Immunohistochemistry, endothelial cell staining, mouse 3LL tumor; format: binding; design: key: −, negative; +/−, very weak; 1+, weak; 2+, moderate; 3+, strong; 4+, very strong; conditions: acetone fixed frozen sections
Method: as §2
Tumors examined through immunohistochemistry were human tumors of various types from cancer patients, transplantable human tumor xenografts of various types grown in mice, guinea pig Line 10 tumor grown in guinea pig, and mouse 3LL tumor grown in mice (see legend to Table 3 for details).

NCI-H358 tumors = experiment: Prolonged treatment of established NCI-H358 xenografts (FIG. 5A); format: in vivo, mice
Method: FIG. 5A and FIG. 5B. […] Treatments (T) were 100 μg of the IgG given i.p., except for the initial treatment that consisted of 500 μg of the IgG given i.v. Mean tumor volume along with the SEM is shown. At the end of the study (day 116), the mice were sacrificed and the tumors dissected out and weighed. […] The mice were treated every other day as indicated (T). […] Mean tumor volume along with the SE is shown.
In this study, spontaneous regressions were less pronounced. […] The 3E7 treated mice began treatment with a mean tumor volume of 428 mm^3 and rose to a volume of 1326 mm^3 after approximately 14 wk, an increase of […] in volume.

[6] = tested on: LS174T colon adenocarcinoma; experiment: Treatment of established LS174T tumors; design: species or system mice; conditions: mouse, in vivo
[7] = 24 hours after i.v. antibody, 2C3 in NCI-H358 nu/nu mice, 3E7 and GV39M in HT29 SCID mice

Chain of VEGF alone or VEGF associated with sFlk-1 (VEGF:Flk-1) (P15692 27-191 isoform P15692-4 limits assumed): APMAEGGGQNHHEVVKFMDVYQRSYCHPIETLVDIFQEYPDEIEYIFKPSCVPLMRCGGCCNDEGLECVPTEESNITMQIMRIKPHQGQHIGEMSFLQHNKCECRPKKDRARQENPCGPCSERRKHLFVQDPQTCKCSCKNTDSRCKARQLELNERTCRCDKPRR

For “2C3: anti-VEGF monoclonal antibody, IgG2a, k, produced by hybridoma ATCC PTA 1595; blocks VEGF binding to VEGFR2 but not VEGFR1 [Clone 2C3]”, the “Endothelial Cell Staining, Xenograft (various)” value [1] was “−”, the “Immunohistochemical Reactivity, Heart” value [2, 7] was “−” and the “Immunohistochemical Reactivity, Intestine” value [2, 7] was “−”. The “Immunohistochemical Reactivity, Kidney” value [2, 7] was “−”, the “Immunohistochemical Reactivity, Liver” value [2, 7] was “−” and the “Immunohistochemical Reactivity, Lung” value [2, 7] was “−”. The “Immunohistochemical Reactivity, Spleen” value [2, 7] was “−”, the “Immunohistochemical Reactivity, Tumor” value ([2]; 24 hours after i.v. antibody, 3E7 and GV39M bound tumor vascular endothelium, 2C3 tumor stroma) was 3+ and the “In vivo tumor localization pattern” value ([2]; CT = connective tissue, BV = blood vessels) was “Moderate to strong”. The “In vivo localization in the HT29 human tumor model” value ([2]; HT29) was “localized strongly to the connective tissue”, the “In vivo normal mouse tissue localization” value ([2]; mouse, in vivo) was “None detectable” and the “Endothelial Cell Staining, Guinea Pig Tumor (Line 10)” value [3] was “−”. For the same substance, the “Blocks VEGF from binding to VEGFR2” value (VEGFR2 (sFlk-1)) was “Yes”, the “Effect on VEGF binding to VEGFR2 in ELISA” value (VEGFR2 (sFlk-1); 100-1000 fold excess) was “blocked” and the “Reduction in VEGF binding to VEGFR2” value (VEGFR2 (sFlk-1); 100 fold molar excess over VEGF) was “about 74%”. The “VEGF bound to VEGFR2-coated wells, of the amount bound in the absence of antibody” value (VEGFR2 (sFlk-1); 1000-fold molar excess over VEGF (1 nM VEGF)) was ~19%, the “Reduction in VEGF binding to VEGFR2” value (VEGFR2 (sFlk-1); 1000 fold molar excess over VEGF) was “about 81%” and the “Blocks VEGF from binding to VEGFR1” value (VEGFR1 (Flt-1/Fc)) was “No”. For the same substance, the “Tumor growth retardation in the NCI-H358 tumor model at the lower dose” value (NCI-H358 NSCLC; 10 μg dose) was “less marked”, the “Final tumor volume, NCI-H358” value (NCI-H358 NSCLC; 100 μg i.p. 2 times per wk from day 1, controls approximately 1000 mm^3) was “approximately 150 mm^3” and the “Predominant Reactivity” value [4] was “VEGF”. The “Endothelial Cell Staining, Mouse Tumor (3LL)” value [5] was “−”, the “Mean tumor volume after approximately 14 wk of treatment” value (NCI-H358 tumors; 100 μg, at start 480 mm^3 (2C3), 428 mm^3 (3E7)) was 84 mm^3 and the “Decrease in mean tumor volume” value (NCI-H358 tumors; after approximately 14 wk) was “approximately 80%”. For the same substance, the “Mean tumor weight at the end of the study” value (NCI-H358 tumors; day 116) was 0.054 g and the “Effect on growth of established LS174T tumors” value [6] was “significantly slowed the growth”.
